Drawing on ChEMBL document CHEMBL1144375, “Solid-phase synthesis of naphthylamidines as factor VIIa/tissue factor inhibitors” (Bioorg Med Chem Lett, 2005), this text covers Ki for 13 compounds.

For one experiment, the target named is Coagulation factor X (Homo sapiens, UniProt P00742). The experiment is described as follows: Inhibition constant towards human coagulation factor X.
A further experiment addresses T1, Coagulation factor VII (Homo sapiens, UniProt P08709).
T1 sequence (P08709 whole entry): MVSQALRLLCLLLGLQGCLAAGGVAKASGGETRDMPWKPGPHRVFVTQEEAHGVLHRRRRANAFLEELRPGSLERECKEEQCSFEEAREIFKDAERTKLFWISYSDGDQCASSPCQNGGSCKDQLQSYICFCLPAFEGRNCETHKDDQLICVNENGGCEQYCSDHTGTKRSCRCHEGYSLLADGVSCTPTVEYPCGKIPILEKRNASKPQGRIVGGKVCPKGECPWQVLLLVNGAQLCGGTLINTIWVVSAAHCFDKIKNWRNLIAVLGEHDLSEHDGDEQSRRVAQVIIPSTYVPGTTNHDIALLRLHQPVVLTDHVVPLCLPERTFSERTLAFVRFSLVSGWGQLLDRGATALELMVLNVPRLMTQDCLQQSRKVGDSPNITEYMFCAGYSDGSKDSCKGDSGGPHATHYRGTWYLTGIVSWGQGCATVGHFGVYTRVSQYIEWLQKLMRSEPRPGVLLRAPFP
The experiment is described as follows: Inhibition constant towards human coagulation factor VII.

The target in the next experiment is T2, Serine protease 1 (Bos taurus, UniProt P00760).
T2 sequence (P00760 whole entry): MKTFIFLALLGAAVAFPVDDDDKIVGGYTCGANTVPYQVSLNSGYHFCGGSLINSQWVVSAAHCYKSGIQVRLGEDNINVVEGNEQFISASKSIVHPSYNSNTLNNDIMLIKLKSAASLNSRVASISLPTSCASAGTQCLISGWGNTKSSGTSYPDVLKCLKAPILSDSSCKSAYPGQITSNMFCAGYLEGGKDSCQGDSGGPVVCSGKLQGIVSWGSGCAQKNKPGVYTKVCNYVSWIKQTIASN
The experiment is described as follows: Inhibition constant towards bovine trypsin.

Another experiment deals with Prothrombin (Homo sapiens, UniProt P00734). The experiment is described as follows: Inhibition constant towards human thrombin.

Molecules are shown by their SMILES.

Coagulation factor X, sequence (P00742 41-179 limits assumed): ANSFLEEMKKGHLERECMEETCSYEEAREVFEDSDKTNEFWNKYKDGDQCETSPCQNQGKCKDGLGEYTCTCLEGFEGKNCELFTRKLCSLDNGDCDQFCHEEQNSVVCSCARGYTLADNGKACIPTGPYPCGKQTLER
Coagulation factor X, sequence (P00742 235-488 limits assumed): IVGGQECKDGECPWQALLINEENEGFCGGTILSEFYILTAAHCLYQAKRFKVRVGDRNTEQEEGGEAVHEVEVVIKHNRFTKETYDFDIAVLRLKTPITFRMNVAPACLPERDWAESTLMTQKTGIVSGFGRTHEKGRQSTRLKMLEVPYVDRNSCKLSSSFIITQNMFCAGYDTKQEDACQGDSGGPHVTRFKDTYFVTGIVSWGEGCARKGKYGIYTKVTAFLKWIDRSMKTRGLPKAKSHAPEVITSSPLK

`CC(C)CCN(Cc1ccc2ccc(C(=N)N)cc2c1)C(=O)c1ccc2ccccc2c1`: the inhibitory constant (Ki) (in general, the equilibrium dissociation constant of an inhibitor or competing ligand from its target) at Coagulation factor X was 512 nM; on Coagulation factor VII, 783 nM; at Serine protease 1, 460 nM; at Prothrombin, 486 nM.

As to `CN1CCCC1CCN(Cc1ccc2ccc(C(=N)N)cc2c1)C(=O)c1cccc2ccccc12` (configuration not stated), the Ki is 111 nM at Coagulation factor X, 142 nM at Coagulation factor VII, 433 nM at Serine protease 1 and above 5000 nM at Prothrombin.

`N=C(N)c1ccc2ccc(CN(CCc3ccccn3)C(=O)c3cccc4ccccc34)cc2c1`: the inhibitory constant (Ki) at Coagulation factor X is 104 nM; at Coagulation factor VII it was 195 nM; on Serine protease 1, 299 nM; on Prothrombin, 4760 nM.

In the case of `N=C(N)c1ccc2ccc(CN(CCCc3ccccc3)C(=O)c3cccc4ccccc34)cc2c1`, the inhibitory constant (Ki) was determined as 632 nM on Coagulation factor X, 207 nM at Coagulation factor VII, 925 nM on Serine protease 1 and 1200 nM at Prothrombin.

Regarding `N=C(N)c1ccc2ccc(CN(CCc3cnc[nH]3)C(=O)c3cccc4ccccc34)cc2c1`, the inhibition constant (Ki) at Coagulation factor X was 264 nM; on Coagulation factor VII, 305 nM; at Serine protease 1 it was 378 nM; at Prothrombin, above 5000 nM.

As to `N=C(N)c1ccc2ccc(CN(CCC[n+]3cc[nH]c3)C(=O)c3cccc4ccccc34)cc2c1`, the Ki on Coagulation factor X was 731 nM; on Coagulation factor VII it was 282 nM; on Serine protease 1, 752 nM; at Prothrombin, above 5000 nM.

Consider `CC1CCCCN1CCCN(Cc1ccc2ccc(C(=N)N)cc2c1)C(=O)c1cccc2ccccc12` (configuration not stated), for which the Ki was 137 nM on Coagulation factor X, 646 nM on Coagulation factor VII, 367 nM at Serine protease 1 and above 5000 nM at Prothrombin.

In the case of `N=C(N)c1ccc2ccc(CN(CCCN3CCOCC3)C(=O)c3cccc4ccccc34)cc2c1`, the Ki on Coagulation factor X is 442 nM; on Coagulation factor VII it was 121 nM; on Serine protease 1, 378 nM; on Prothrombin it was above 5000 nM.

With `CN1CCN(CCCN(Cc2ccc3ccc(C(=N)N)cc3c2)C(=O)c2cccc3ccccc23)CC1`, the Ki on Coagulation factor X worked out at 136 nM; on Coagulation factor VII it was 1310 nM; at Serine protease 1, 500 nM; on Prothrombin, 500 nM.

As for `N=C(N)c1ccc2ccc(CN(CCc3ccc(F)cc3)C(=O)c3cccc4ccccc34)cc2c1`, the inhibition constant (Ki) on Coagulation factor X was 40 nM; at Coagulation factor VII, 194 nM; at Serine protease 1, 501 nM; at Prothrombin, 1680 nM.

For `COc1ccc(CCN(Cc2ccc3ccc(C(=N)N)cc3c2)C(=O)c2cccc3ccccc23)cc1OC`, the Ki worked out at 417 nM at Coagulation factor X, 133 nM on Coagulation factor VII, 105 nM at Serine protease 1 and 2510 nM on Prothrombin.

`CC(C)CCN(Cc1ccc2ccc(C(=N)N)cc2c1)C(=O)c1cccc2ccccc12`: the Ki worked out at 262 nM on Coagulation factor X, 93 nM on Coagulation factor VII, 698 nM at Serine protease 1 and 1160 nM at Prothrombin.

With `CC(C)CC(C(=O)O)N(Cc1ccc2ccc(C(=N)N)cc2c1)C(=O)c1cccc2ccccc12` (single isomer, unassigned), the inhibition constant (Ki) was above 5000 nM at Coagulation factor X, 1010 nM at Coagulation factor VII, 1610 nM on Serine protease 1 and above 5000 nM on Prothrombin.
